US7465708B2, “Branched cationic copolymers and methods for antimicrobial use” (priority 2002, dated 2008)
Where two headings read alike, the source gives them in different places. Positions of bridges follow the written chain, without caps; N, C: chain ends. Chains are numbered I, II in the order given. No end group written: not given here.

Columns and labels:
[1] = system: gram negative bacteria E. coli transformed with a kanamycin-resistant plasmid; assay: In vitro bacteria inhibition (MIC, turbidity O.D. 600 nm in LB broth); format: cell-based
Description: Bacteria; A gram negative bacteria E. coli transformed with a kanamycin-resistant plasmid was used in these experiments and grown in LB media (Biofluids, Rockville, Md.).
For in vitro studies, several polymers were tested for their ability to inhibit gram negative bacteria. […] The histidine and lysine ratio and their sequence order have an important role in the-polymers' effects. […] Since it is likely that H^3KN4b has the greatest ability to chelate key transitional elements, chelation of key elements in LB media, separate from the polymer's role of binding to the bacteria membrane, is unlikely to have a major role in the inhibition of bacteria. • 3) The sequence order of lysine and histidine in the branched polymer has a major role in the inhibition of bacteria. Altering these sequences affects the antibacterial activity of […]. Sufficient cationic amino acids are critical for binding whereas the exact function of histidine is unclear. Data supports that cationic amino acids need to be evenly distributed in branches, particularly at N-terminal ends. Too many cationic amino acids in the polymer, however, reduce antibacterial activity. • 4) Histidine may have a role in the interruption of iron transport systems and/or it may enhance the hydrophobic interactions of the polymer with the bacteria membrane.

MDA-MB-435 cells = assay: In vitro toxicity: reduction in cell number after incubation with polymers; format: cell-based
From the text: In vitro toxicity of these polymers was then examined on a malignant cell line (MDA-MB-435).

mice = assay: Acute in vivo toxicity after IV injection; settings: for side effects of surviving mice (scale): one symbol per mouse; for histology of major organs: mice who died from polymers at higher dosages; for in vivo toxicity (in words): administered intravenously
From the text: One of the major limitations of cationic peptides is their potenitial toxicity when administered systemically. As a result, we tested the acute toxicity of these polymers after injecting them IV. […] Conversely, linear polymers that had minimal to moderate antibacterial properties had the greatest in vivo toxicity. […] Even if one arginine adjacent to the histidine residue replaces the amino terminal lysine in the HK polymer (e.g., HK-R), the polymer was still very toxic when administered intravenously. The in vivo toxicity of linear HK polymers from most to least is as follows: HR>HK-R>>HK. […] There were parallels between in vitro and in vivo toxicity studies (Tables 2 and 3). […] The data is consistent with linear polymers interacting and inhibiting ionic channels of the cardiovascular system (similar to neurotoxins). Intravenous injection of linear polymers with arginine or lysines adjacent (or near) to histidines should be avoided.

[2] = 50 μg/ml, 6 h incubation in DMEM/10% serum, counted 24 h later vs untreated cells
[3] = 150 μg/ml, 6 h incubation in DMEM/10% serum, counted 24 h later vs untreated cells
[4] = 100 μl/ml, 6 h incubation in DMEM/10% serum, counted 24 h later vs untreated cells

Substance | number of mice who survive treatment / number of mice in treatment group (mice; 75 μg IV) | number of mice who survive treatment / number of mice in treatment group (mice; 150 μg IV) | side effects of surviving mice (scale) (mice; 150 μg IV) | number of mice who survive treatment / number of mice in treatment group (mice; 300 μg IV) | number of mice who survive treatment / number of mice in treatment group (mice; 600 μg IV) | histology of major organs (mice) | other results
I: KHKHHKHHKHHKHHKHHKHKK / II: KHKHHKHHKHHKHHKHHKHK (amide I:21-II:C) [H^2K2b, [K-H-H-K-H-H-K-H-H-K-H-H-K-H-H-K-H-K]2K] |  |  |  |  |  |  | antimicrobial activity (in words) [1]: only moderate reduction on bacteria growth
I: KHHHNHHHKHHHKHHHKKKK / II: KHHHNHHHKHHHKHHHK / III: KHHHNHHHKHHHKHHHK / IV: KHHHNHHHKHHHKHHHK (amide I:18-IV:C, I:19-III:C, I:20-II:C) [H^3KN4b, [K-H-H-H-N-H-H-H-K-H-H-H-K-H-H-H-K]4K3] |  |  |  |  |  |  | antimicrobial activity (in words) [1]: moderate antimicrobial activity
KHKHKHKHKGKHKHKHKHK [linear HK, [K-H-K-H-K-H-K-H-K-G-K-H-K-H-K-H-K-H-K]] | 2/2 | 2/2 | ++, + | 2/2 | 0/2 | no evidence of pathology | Reduction In Cell Number (MDA-MB-435 cells): 68%; in vitro toxicity (in words, measured by cell number) (MDA-MB-435 cells): significantly more toxic; side effects of surviving mice (scale) (mice; 300 μg IV): +++, +++
RHRHRHRHRGRHRHRHRHR [linear RH, [R-H-R-H-R-H-R-H-R-G-R-H-R-H-R-H-R-H-R]] | 2/2 | 2/2 | +++, + | 0/2 | 0/2 | no evidence of pathology | side effects of surviving mice (scale) (mice; 75 μg IV): + (moderate reduction in activity in for less than 1 min); in vivo toxicity (in words) (mice): most toxic of the linear polymers
RHKHKHKHKGKHKHKHKHK [HK-R, [R-H-K-H-K-H-K-H-K-G-K-H-K-H-K-H-K-H-K]] | 2/2 | 2/2 | +, + | 0/2 | 0/2 | no evidence of pathology | in vivo toxicity (in words) (mice): very toxic
I: KHHHKHHHKHHHKHHHKKKK / II: KHHHKHHHKHHHKHHHK / III: KHHHKHHHKHHHKHHHK / IV: KHHHKHHHKHHHKHHHK (amide I:18-IV:C, I:19-III:C, I:20-II:C) [H^3K4b, [K-H-H-H-K-H-H-H-K-H-H-H-K-H-H-H-K]4K3] | 2/2 | 2/2 |  | 2/2 | 2/2 |  | Reduction In Cell Number (MDA-MB-435 cells; [2]): 0%; Reduction In Cell Number (MDA-MB-435 cells; [3]): 0%; Reduction In Cell Number (MDA-MB-435 cells; [4]): 0%; in vitro toxicity (in words, measured by cell number) (MDA-MB-435 cells; MDA-MB-435 cells): no observed toxicity; toxicity after repeated dosing (in words) (mice; three 600 μg dosages, each separated by 4 h): no evidence of toxicity
I: KHKHKHKHKGKHKHKHKHKKKK / II: KHKHKHKHKGKHKHKHKHK / III: KHKHKHKHKGKHKHKHKHK / IV: KHKHKHKHKGKHKHKHKHK (amide I:20-IV:C, I:21-III:C, I:22-II:C) [HK4b, [K-H-K-H-K-H-K-H-K-G-K-H-K-H-K-H-K-H-K]4K3] | 2/2 | 2/2 |  | 2/2 | 2/2 |  | 
I: KHKHHKHHKHHKHHKHHKHKKKK / II: KHKHHKHHKHHKHHKHHKHK / III: KHKHHKHHKHHKHHKHHKHK / IV: KHKHHKHHKHHKHHKHHKHK (amide I:21-IV:C, I:22-III:C, I:23-II:C) [H^2K4b, [KHKHHKHHKHHKHHKHHKHK]4K3] | 2/2 | 2/2 |  | 2/2 | 2/2 |  | Reduction In Cell Number (MDA-MB-435 cells; [2]): 5%; Reduction In Cell Number (MDA-MB-435 cells; [3]): 22%; Reduction In Cell Number (MDA-MB-435 cells; [4]): 12%
